Our source for the melting point values is a melting point compilation (Tetko et al.; mined from patent text by program, amines drawn as free bases though some values may be those of a salt).

One may read the melting point as the temperature of the solid-liquid transition.

On to `COC(=O)C(=CNC1CC1)C(=O)c1cc(F)c(Cl)cc1Cl`, for which the melting point was 150 to 151 °C.

On to `O=C(CCl)N1CC=C(c2cccc(C(F)(F)F)c2)n2ncc(Br)c21`, for which the melting point was in the range of 128 to 130 °C.

In the case of `CN(C)c1ccc(NC(=O)N(C[C@@H]2CCCC[C@H]2CN(C(=O)Nc2ccc(N(C)C)cc2)C2CCCCC2)C2CCCCC2)cc1` (relative stereo), the melting point was 108 to 114 °C.

Compound `CC(C)(C)OC(=O)N(CC(=O)OCN1C(=O)CCC(N2C(=O)c3ccccc3C2=O)C1=O)C(=O)CN` (stereo not given) had a melting point of 178 to 181 °C.

In turn, `Cc1ccc([N+](=O)[O-])c(CO)c1C` showed a melting point of 48 to 51 °C.

As for `COc1ccc(Cl)cc1N1CCN(CCCNC(=O)c2c(-c3ccccc3)noc2C)CC1`, the melting point is 139 to 142 °C.

`CN(C(=O)c1ccccc1)C1CCC(=O)CC1`: the melting point lay within 126 to 128 °C.

Regarding `COc1cc(COc2nn(-c3ccccc3)cc2C=O)ccc1OCc1sc(-c2ccccc2)nc1C`, the melting point was in the range of 171 to 172 °C.

Take `CCSC1=CCC2C3CCC4=CC(=O)C=CC4(C)C3(F)C(OC(C)=O)CC12C` (stereo not given): the melting point lay within 211 to 215 °C.

For `O=C(O)Cc1cc(C(=O)C=Cc2ccc(Cl)cc2Cl)ccc1O`, the melting point was 232 °C.

As to `CCN(CC)CCOc1ccc(C(O)(CC)c2ccc(Cl)cc2)cc1` (stereo not given), the melting point was in the range of 50 to 51 °C.

In the case of `O=Cc1cc2c3ccccc3oc2c2ccccc12`, the melting point fell in the range of 123 to 125 °C.

Take `COc1ccc(CSc2ccc3c(c2)C=CC(C)(C)O3)cc1`: the melting point lay in the range of 58 to 59 °C.

Compound `CCCCCCCCCCCCCC(=O)c1c(O)cc(C)c(O)c1CCC` showed a melting point of 62 °C.

`CC1CNc2c(cccc2S(=O)(=O)N[C@@H](CCCNC(=N)N)C(=O)N2CC[C@@H](C)C[C@@H]2C(=O)O)C1` (stereo not given in full) gave a melting point of 188 to 191 °C.

`COC(=O)Cc1cccc(NC(=O)NCC(=O)N2[C@@H](c3ccccc3)SC[C@H]2C(=O)OC(C)(C)C)c1` gave a melting point of 69 °C.

Regarding `CC(=O)N1CCN(C(=O)c2nc(-c3ccccc3)c(-c3ccc(=O)n(C(C)C)n3)s2)CC1`, the melting point was 78 to 82 °C.

In the case of `COC(=O)c1nc(SC(F)(F)F)c(N)nc1N`, the melting point lay within 151 to 155 °C.

With `CC(=O)OC1CSC(Oc2cccc(-c3cccs3)c2)C(OC(C)=O)C1OC(C)=O` (stereo not given), the melting point was 122 to 123 °C.

`CCOCCS(=O)(=O)c1nc[nH]n1` came in with a melting point of 91.5 to 92.5 °C.

Regarding `C=C(C)C(=O)Nc1ccc(O)c(C(=O)O)c1`, the melting point amounted to 218 °C.

With `Clc1ccc2c(c1)CCc1cccnc1C2=C1CCN(Cc2ccc(Cl)nc2)CC1`, the melting point lay within 76.2 to 81.7 °C.

The compound `COC(=O)CCc1cc2cc(Cl)ccc2n1S(=O)(=O)c1ccc2nc(NC(C)=O)sc2c1` had a melting point of 217 to 221 °C.

`COc1c(SCc2ccco2)ccnc1CO`: the melting point fell in the range of 56 to 58 °C.

For the compound `CN1C(=O)c2ccccc2C[C@H]1C(=O)O`, the melting point fell in the range of 173 to 175 °C.

As to `CCN1c2ncc(CCc3ccc4ccccc4c3)cc2C(=O)N(C)c2ccc(F)nc21`, the melting point is 112 to 114 °C.

In turn, `CCOC(=O)c1c(N2CCCCC2)c(C#N)c(=O)n2ccccc12` had a melting point of 143 to 144 °C.

On to `CCN(CC)C(=O)c1ccc(Cl)c(C2(C)C(=O)N(Cc3ccc(OC)cc3OC)c3ccc(Cl)cc32)c1` (stereo not given), for which the melting point stood at 86 °C.

For `COc1cc(C#N)ccc1Cc1cn(C)c2ccc([N+](=O)[O-])cc12`, the melting point lay within 200 to 201 °C.

With `O=C1[C@H]2CCC[C@H]2Nc2ccc(Cl)cc2N1Cc1ccccc1` (relative stereo), the melting point fell in the range of 160 to 163 °C.

`CN1CCc2c(c3ccccc3n2CCc2nc(-c3ccncc3)cs2)C1` displayed a melting point of 158 to 160 °C.

The compound `CN(Cc1ccc2nsnc2c1)C1CCN(C(=O)c2ccc(Nc3nccc(Nc4ccc(F)cc4)n3)cc2)CC1` had a melting point of 191 to 192 °C.

`COc1cc(C(=O)COC(C)=O)ccc1OCCCN1CCC(C(O)(c2ccc(F)cc2)c2ccc(F)cc2)CC1` returned a melting point of 138 to 140 °C.

With `Cc1nc2cc(-c3ccnc(-c4cn(C)c(=O)n4-c4ccc(C(C)(C)C#N)cc4)c3)cnc2[nH]1`, the melting point amounted to 288 °C.

Compound `CCCCCCCCCCCCC1=C(Cl)C(=O)c2ccccc2C1=O` came in with a melting point of 80 to 82 °C.

For `COc1cc(OC)c([C@@H]2CCN(C)C[C@H]2O)c(OC)c1` (relative stereo), the melting point was 96 to 97 °C.

`CN1OCC/C(=C\c2nc(C(C)(C)C)c(O)c(C(C)(C)C)n2)C1=O` registered a melting point of 180 to 181 °C.

For `Cc1c(C)c2c(c(C)c1OCc1ccccc1)CCC(C)(C(=O)O)O2` (stereo not given), the melting point is 154 to 155 °C.

`Cc1cn(C(C)C(=O)N(C)C)nc1-c1cccs1` (stereo not given): the melting point fell in the range of 100 to 102 °C.

The compound `NC1=C(NC=O)C(=O)N2CCN=C2N1Cc1ccccc1` showed a melting point of 248 to 250 °C.

In turn, `COc1cc(CNC(=O)c2ccc(Cl)cc2OCC(=O)O)cc(OC)c1` had a melting point of 163 °C.

In turn, `Fc1ccccc1[C@@H]1Cc2cnc(Nc3cccc(CCN4CCNCC4)c3)nc2-c2ccccc21` came in with a melting point of 165 to 167 °C.

The compound `COC(=O)[C@@H]1CCCN1c1ccc(C)c([N+](=O)[O-])c1O` returned a melting point of 111 to 114 °C.

Regarding `C=Cc1c(C(C)C)nc(C(C)C)c(CCCCC)c1-c1ccc(F)cc1`, the melting point was 44 to 46 °C.

`COc1cc2c(cc1Nc1ncc(Cl)c(Nc3ccc(N4CCOCC4)cc3OC)n1)CCN(CC(=O)N1CCOCC1)CC2` registered a melting point of 189 to 191 °C.

The compound `O=Cc1ccccc1OCCOc1ccccc1C=O` came in with a melting point of 129 °C.

Consider `COC(=O)c1cccc(-c2nnc(-c3ccc(C(C)C)cc3)o2)c1`, for which the melting point is 74 to 77 °C.

Consider `O=C1N=C(NN2CCOCC2)SC1=Cc1cccc(-c2cc(F)c(O)c(C34CC5CC(CC(C5)C3)C4)c2)c1`, for which the melting point lay in the range of 304 to 309 °C.

`N#CCc1ccc(-c2nc3ccccc3o2)cc1[N+](=O)[O-]` registered a melting point of 203 °C.

`COCCOc1ccc2cc3ccccc3cc2c1C=O` displayed a melting point of 114 to 117 °C.

Consider `CCCCCOc1c(OC)cc([N+](=O)[O-])c2nccc(C)c12`, for which the melting point lay in the range of 54 to 55 °C.

In the case of `COc1ccc(-c2nc3cc(OC)cc(C#N)c3o2)cc1`, the melting point is 180 to 183 °C.

The compound `OCC(CO)Cc1cccc(Br)c1` returned a melting point of 61 to 63 °C.

Compound `NS(=O)(=O)c1ccc(-c2c(-c3ccccc3)noc2COCC(F)(F)C(F)(F)C(F)(F)CO[N+](=O)[O-])cc1` showed a melting point of 38 to 39 °C.

The compound `COc1ccc2cc(-c3ccc(OCC(O)CNC(C)C)cc3)n(C)c(=O)c2c1` (stereo not given) showed a melting point of 140 to 142 °C.

Regarding `COC(=O)C1(C(=O)Nc2ccc(Br)cc2C)C2CCCCC21` (stereo not given), the melting point fell in the range of 105 to 107 °C.

The compound `CCN(C(=O)c1ccccc1[Si](C)(C)C)C(OC)C(C)(C)C` (stereo not given) came in with a melting point of 76 to 78 °C.

In the case of `CCOC(=O)c1cnn2c1c(NC1CCCCCC1)nc1ccccc12`, the melting point lay within 114 to 115 °C.

`COc1ccc(-c2nc(Sc3cccc(OC)c3)n(C3CCCCO3)c2-c2ccc(OC)cc2)cc1` (stereo not given): the melting point is 123 °C.

As to `COc1cccc(CNc2nc(Cl)nc3c2nc(Br)n3C(C)C)c1`, the melting point lay in the range of 123 to 125 °C.
